# Measured values published in patent US12427134B2, “Methods of reducing the risk of cardiovascular events in a subject with atrial fibrillation and/or atrial flutter” (priority 2019, dated 2025).
# Test system: hypertriglyceridemic patients with cardiovascular disease or at high risk for cardiovascular disease
# Assay: REDUCE-IT: time to first occurrence of adjudicated cardiovascular endpoint events (primary, key secondary, other secondary, tertiary; sensitivity and landmark analyses)
# Format: in vivo
# Source text: The following study, also referred to as the REDUCE-IT clinical trial, was a large cardiovascular (CV) outcome trial designed to assess CV risk reduction benefit of AMR101 treatment (commercially known as VASCEPA®) versus placebo on the 5-point primary composite endpoint: CV death, non-fatal stroke, non-fatal myocardial infarction (MI), coronary revascularizations, or unstable angina requiring hospitalization.
# A multi-center, prospective, randomized, double-blind, placebo-controlled, parallel-group study was performed to evaluate the effect of AMR101 (4 g per day) on cardiovascular health and mortality in hypertriglyceridemic patients with cardiovascular disease or at high risk for cardiovascular disease. The intended expanded indication of the study was treatment with AMR101 as an add-on to statin therapy to reduce the risk of cardiovascular events in patients with clinical cardiovascular disease or with multiple risk factors for cardiovascular disease.
# The primary objective of this study was, in patients at LDL-C goal while on statin therapy, with established cardiovascular disease (CVD) or at high risk for CVD, and hypertriglyceridemia (e.g., fasting triglycerides (TG) ≥200 mg/dL and <500 mg/dL), to evaluate the effect of AMR101 4 g daily on time from randomization to first occurrence of any component of the composite of the following major CV events: CV death; nonfatal MI; (including silent MI; electrocardiograms (ECGs) were performed annually for the detection of silent MIs); nonfatal stroke; coronary revascularization; and unstable angina determined to be caused by myocardial ischemia by invasive/non-invasive testing and requiring emergent hospitalization.
# The key secondary objective of this study was to evaluate the effect of AMR101 4 g daily on the time from randomization to the first occurrence of the composite of following major CV events: CV death, nonfatal MI (including silent MI), and nonfatal stroke.
# Other secondary objectives for this study were to evaluate the effect of therapy on time from randomization to the first occurrence of the following individual or composite endpoints: composite of CV death or nonfatal MI (including silent MI); fatal or nonfatal MI (including silent MI); non-elective coronary revascularization represented as the composite of emergent or urgent classifications; CV death; unstable angina determined to be caused by myocardial ischemia by invasive/non-invasive testing and requiring emergent hospitalization; fatal or nonfatal stroke; composite of total mortality, nonfatal MI (including silent MI), or nonfatal stroke; and total mortality.
# The key tertiary objectives for this study were to evaluate the effect of AMR101 4 g daily from baseline and percent change from baseline in fasting triglycerides and LDL-C. […]
# [1] = ITT population, listed as Icosapent Ethyl
# [2] = clinically adjudicated arrhythmia sequelae, safety population
# [3] = clinically adjudicated arrhythmia sequelae, safety population, vs placebo
# [4] = determined programmatically, ITT
# [5] = excludes patients with Type 1 or Type 2 diabetes at baseline, ITT
# [6] = tertiary endpoint, first occurrence, ITT
# [7] = vs placebo, listed as Icosapent Ethyl
# [8] = vs placebo, listed as icosapent ethyl
compound,measurement,setting,value
"CC/C=C\C/C=C\C/C=C\C/C=C\C/C=C\CCCC(=O)OCC [AMR101, eicosapentaenoic acid ethyl ester]","New Heart Failure (newly emergent CHF), HR (95% CI)",[1],"0.95 (0.77, 1.17)"
same,"New Heart Failure (newly emergent CHF), patients with event",[1],(4.1%)
same,"New Heart Failure Requiring Hospitalization, HR (95% CI)",[1],"0.97 (0.77, 1.22)"
same,"New Heart Failure Requiring Hospitalization, patients with event",[1],(3.4%)
same,"New Onset Hypertension, HR (95% CI)",[1],0.86 (0.41-1.80)
same,"Peripheral Artery Disease, HR (95% CI)",[1],0.97 (0.78-1.21)
same,"Peripheral Artery Disease, patients with event",[1],(3.8) %
same,"Sudden Cardiac Death, HR (95% CI)",[1],"0.69 (0.50, 0.96)"
same,"Sudden Cardiac Death, patients with event",[1],(1.5%)
same,"Transient Ischemic Attack, patients with event",[1],(1.6%)
same,"Urgent Revascularization, HR (95% CI)",[1],"0.66 (0.54, 0.79)"
same,"Urgent Revascularization, patients with event",[1],(4.4%)
same,Deaths with undetermined cause,Safety population,36 (0.9) n (%)
same,Non-CV deaths,Safety population,100 (2.4) n (%)
same,Total mortality,"Safety population, N = 4089",274 (6.7) n (%)
same,"Coronary Revascularization, events (%)","clinically adjudicated arrhythmia sequelae, composite of emergent, urgent, elective, salvage, safety population",(9.2%)
same,"Any Myocardial Infarction, events (%)",[2],(6.1%)
same,"Any Stroke, events (%)",[2],(2.4%)
same,"Cardiac Arrest, events (%)",[2],(0.5%)
same,"Carotid Revascularization, events (%)",[2],(0.8%)
same,"Sudden Cardiac Death, events (%)",[2],(1.5%)
same,"Transient Ischemic Attack, events (%)",[2],(1.6%)
same,"Any Myocardial Infarction, HR (95% CI)",[3],0.69 (0.58 to 0.81)
same,"Any Stroke, HR (95% CI)",[3],0.72 (0.55 to 0.93)
same,"Cardiac Arrest, HR (95% CI)",[3],0.52 (0.31 to 0.86)
same,"Sudden Cardiac Death, HR (95% CI)",[3],0.69 (0.50 to 0.96)
same,"Transient Ischemic Attack, HR (95% CI)",[3],1.32 (0.91 to 1.92)
same,"Coronary Revascularization, HR (95% CI) Icosapent Ethyl/Placebo","composite of emergent, urgent, elective, salvage, ITT",0.66 (0.58-0.76)
same,"Coronary Revascularization, patients with event (%)","composite of emergent, urgent, elective, salvage, first occurrence, ITT",(9.2) %
same,"New Onset Hypertension, HR (95% CI) Icosapent Ethyl/Placebo",[4],0.86 (0.41-1.80)
same,"New Onset Hypertension, patients with event (%)",[4],(0.3) %
same,"New Onset Type 2 Diabetes, HR (95% CI) Icosapent Ethyl/Placebo",[5],1.04 (0.73-1.47)
same,"New Onset Type 2 Diabetes, patients with event (%)",[5],(3.8) %
same,"Primary endpoint, risk reduction",post hoc analysis excluding patients with diarrhea,25%
same,"Cardiac Arrest, HR (95% CI) Icosapent Ethyl/Placebo","tertiary endpoint, ITT",0.52 (0.31-0.86)
same,"Elective Revascularization, HR (95% CI) Icosapent Ethyl/Placebo","tertiary endpoint, ITT",0.68 (0.57-0.82)
same,"Emergent Revascularization, HR (95% CI) Icosapent Ethyl/Placebo","tertiary endpoint, ITT",0.62 (0.42-0.92)
same,"Ischemic Stroke, HR (95% CI) Icosapent Ethyl/Placebo","tertiary endpoint, ITT",0.64 (0.49-0.85)
same,"Newly Emergent CHF Requiring Hospitalization, HR (95% CI) Icosapent Ethyl/Placebo","tertiary endpoint, ITT",0.97 (0.77-1.22)
same,"Newly Emergent CHF, HR (95% CI) Icosapent Ethyl/Placebo","tertiary endpoint, ITT",0.95 (0.77-1.17)
same,"Peripheral Artery Disease, HR (95% CI) Icosapent Ethyl/Placebo","tertiary endpoint, ITT",0.97 (0.78-1.21)
same,"Salvage Revascularization, HR (95% CI) Icosapent Ethyl/Placebo","tertiary endpoint, ITT",0.00 (0.00-0.00)
same,"Sudden Cardiac Death, HR (95% CI) Icosapent Ethyl/Placebo","tertiary endpoint, ITT",0.69 (0.50-0.96)
same,"Transient Ischemic Attack, HR (95% CI) Icosapent Ethyl/Placebo","tertiary endpoint, ITT",1.32 (0.91-1.92)
same,"Urgent Revascularization, HR (95% CI) Icosapent Ethyl/Placebo","tertiary endpoint, ITT",0.66 (0.54-0.79)
same,"Amputation for PVD, patients with event (%)",[6],(0.5) %
same,"Cardiac Arrest, patients with event (%)",[6],(0.5) %
same,"Cardiac Arrhythmia Requiring Hospitalization of ≥24 Hours, patients with event (%)",[6],(4.6) %
same,"Carotid Revascularization, patients with event (%)",[6],(0.8) %
same,"Elective Revascularization, patients with event (%)",[6],(4.7) %
same,"Emergent Revascularization, patients with event (%)",[6],(1.0) %
same,"Hemorrhagic Stroke, patients with event (%)",[6],(0.3) %
same,"Ischemic Stroke, patients with event (%)",[6],(2.0) %
same,"Newly Emergent CHF Requiring Hospitalization, patients with event (%)",[6],(3.4) %
same,"Newly Emergent CHF, patients with event (%)",[6],(4.1) %
same,"Peripheral Artery Disease, patients with event (%)",[6],(3.8) %
same,"Salvage Revascularization, patients with event (%)",[6],(0.0) %
same,"Sudden Cardiac Death, patients with event (%)",[6],(1.5) %
same,"Transient Ischemic Attack, patients with event (%)",[6],(1.6) %
same,"Urgent Revascularization, patients with event (%)",[6],(4.4) %
same,Total mortality utilizing known vital status data,"through 31 May 2018, assessed as of database lock",7.3%
same,"Key secondary composite endpoint, relative risk reduction",vs placebo,26.5%
same,"Primary composite endpoint, relative risk reduction",vs placebo,24.8%
same,"Key secondary composite endpoint, relative risk reduction",[7],26%
same,"Primary composite endpoint, relative risk reduction",[7],25%
same,"Key secondary composite endpoint, relative risk reduction",[8],26%
same,"Primary composite endpoint, relative risk reduction",[8],25%
